{"source": "patent US20260176594A1", "about": "“REDUCING DISEASE TRANSMISSION OF VECTOR BORNE DISEASES” (priority 2022, published 2026)", "test_system": "Zika virus", "test": "Zika virus replication in Aedes aegypti mosquitoes fed blood meal with harmane, plaque assay on VERO cells", "type": "in vivo", "details": "harmane in infectious blood meal, 7 days; for Zika virus PFU/mL in mosquito abdomens: vs control group", "description": "3-to-5-day-old Aedes aegypti strain SBE mosquitoes were fed via membrane feeders on a blood meal (rabbit blood) containing approximately 10^7 PFU/ml Zika virus and the indicated concentrations of harmane dissolved in dimethyl sulphoxide (DMSO). The bloodmeal fed to the control group contained no harmane. Fully engorged mosquitoes were selected and kept on a 10% sucrose diet. In total, 30 mosquitoes were analyzed per treatment.\nAfter 7 days, the abdomens of mosquitoes were dissected and placed in 2 mL tubes containing glass beads and 300 μL of DMEM medium. Samples were homogenized. A 1:10 dilution series of this solution was dispersed onto 96-well plates containing VERO cells. 5-6 days later, the medium was discarded and viral plaques were fixed and developed with staining reagent (1% crystal violet in […] solution) at room temperature for 1 h. 5\nPlates were rinsed with distilled water and air-dried. Plaques were counted and multiplied by the corresponding dilution factors to calculate the number of plaque-forming units (PFUs). Horizontal red lines are median values. […] Statistical differences were assessed using the nonparametric Mann-Whitney test.", "data": [{"smiles": "Cc1nccc2c1[nH]c1ccccc12", "note": "[harmane, 1-Methyl-9H-pyrido[3,4-b]indole]", "values": [{"measurement": "statistical difference of treated groups compared to the DMSO-control (Mann-Whitney)", "result": "No significant differences"}, {"measurement": "Zika virus PFU/mL in mosquito abdomens", "result": "reduced level"}, {"measurement": "Zika virus PFU/mL in mosquito abdomens", "setting": "listed as Harmane", "result": "dose dependent decrease"}]}]}
